System: SK-OV-3 tumor lines
Assay: SK-OV-3 tumor in nude mouse, average tumor weight
Format: in vivo
Protocol: 2-Methoxycarbonylamino-4,5,6,7-tetrafluorobenzimidazole (tetrafluoro) was used to treat SK-OV-3 tumor lines in nude mouse. The average tumor weight is reported in mg. The control was the vehicle given twice a week and also 5 times a week. The 2-methoxycarbonyl-amino-4,5,6,7- tetrafluorobenzimidazole was also given on this same schedule. Both compounds were administered by oral gavage.

In the case of `COC(=O)Nc1nc2c(F)c(F)c(F)c(F)c2[nH]1` [Tetrafluoro, 2-Methoxycarbonylamino-4,5,6,7-tetrafluorobenzimidazole], the “Average Tumor Weight” value (2000 mg/kg 2x wkly, oral gavage, day 1) is reported as 58.5 mg, the “Average Tumor Weight” value (2000 mg/kg 2x wkly, oral gavage, day 5) is reported as 108.1 mg and the “Average Tumor Weight” value (2000 mg/kg 2x wkly, oral gavage, day 9) is reported as 246.8 mg. The “Average Tumor Weight” value (2000 mg/kg 2x wkly, oral gavage, day 12) was 476.2 mg, the “Average Tumor Weight” value (2000 mg/kg 2x wkly, oral gavage, day 15) was 770 mg and the “Average Tumor Weight” value (2000 mg/kg qdx5, oral gavage, day 1) was 59.1 mg. The “Average Tumor Weight” value (2000 mg/kg qdx5, oral gavage, day 5) was 106.2 mg, the “Average Tumor Weight” value (2000 mg/kg qdx5, oral gavage, day 9) was 255.8 mg and the “Average Tumor Weight” value (2000 mg/kg qdx5, oral gavage, day 12) was 381.7 mg. For the same compound, the “Average Tumor Weight” value (2000 mg/kg qdx5, oral gavage, day 15) was 781.2 mg, the “Average Tumor Weight” value (4000 mg/kg 2x wkly, oral gavage, day 1) was 59.5 mg and the “Average Tumor Weight” value (4000 mg/kg 2x wkly, oral gavage, day 5) was 98.6 mg. For the same compound, the “Average Tumor Weight” value (4000 mg/kg 2x wkly, oral gavage, day 9) was 204 mg, the “Average Tumor Weight” value (4000 mg/kg 2x wkly, oral gavage, day 12) was 336.6 mg and the “Average Tumor Weight” value (4000 mg/kg 2x wkly, oral gavage, day 15) was 672.9 mg. For the same compound, the “Average Tumor Weight” value (4000 mg/kg qdx5, oral gavage, day 1) was 59.5 mg, the “Average Tumor Weight” value (4000 mg/kg qdx5, oral gavage, day 5) was 66.1 mg and the “Average Tumor Weight” value (4000 mg/kg qdx5, oral gavage, day 9) was 150.8 mg. The “Average Tumor Weight” value (4000 mg/kg qdx5, oral gavage, day 12) was 160.7 mg, the “Average Tumor Weight” value (4000 mg/kg qdx5, oral gavage, day 15) was 315.8 mg and the “effect on the growth of the tumor” value (SK-OV-3 tumor, nude mouse, oral gavage) was “dose responsive effect”.
